Measurements as given in patent US9029359B2, “Heteroaryl Btk inhibitors” (Biogen Idec MA, Inc., priority 2009, dated 2015).
pIC50: −log10 of the molar value.

What follows are compounds tested against T1, BTK (Homo sapiens, UniProt Q06187) (assay: In vitro BTK kinase assay: BTK-POLYGAT-LS ASSAY). Details: ATP 10 uM.
T1 construct: purchased Upstate 14-552
Format: biochemical
Protocol: In vitro BTK kinase assay: BTK-POLYGAT-LS ASSAY. The purpose of the BTK in vitro assay is to determine compound potency against BTK through the measurement of IC50. […] A 24 μL aliquot of a ATP/peptide master mix (final concentration; ATP 10 μM, polyGAT 100 nM) in kinase buffer (10 mM Tris-HCl pH 7.5, 10 mM MgCl2, 200 μM Na3VO4, 5 mM DTT, 0.01% Triton X-100, and 0.2 mg/ml Casein) is added to each well. […] The assay is incubated for 30 minutes before being stopped with 28 μL of a 50 mM EDTA solution. […] The plate is covered and incubated for 45 minutes at room temperature. Time resolved fluorescence (TRF) on Molecular Devices M5 (332 nm excitation; 488 nm emission; 518 nm fluorescein emission) is measured.

T1 sequence (Q06187 whole entry): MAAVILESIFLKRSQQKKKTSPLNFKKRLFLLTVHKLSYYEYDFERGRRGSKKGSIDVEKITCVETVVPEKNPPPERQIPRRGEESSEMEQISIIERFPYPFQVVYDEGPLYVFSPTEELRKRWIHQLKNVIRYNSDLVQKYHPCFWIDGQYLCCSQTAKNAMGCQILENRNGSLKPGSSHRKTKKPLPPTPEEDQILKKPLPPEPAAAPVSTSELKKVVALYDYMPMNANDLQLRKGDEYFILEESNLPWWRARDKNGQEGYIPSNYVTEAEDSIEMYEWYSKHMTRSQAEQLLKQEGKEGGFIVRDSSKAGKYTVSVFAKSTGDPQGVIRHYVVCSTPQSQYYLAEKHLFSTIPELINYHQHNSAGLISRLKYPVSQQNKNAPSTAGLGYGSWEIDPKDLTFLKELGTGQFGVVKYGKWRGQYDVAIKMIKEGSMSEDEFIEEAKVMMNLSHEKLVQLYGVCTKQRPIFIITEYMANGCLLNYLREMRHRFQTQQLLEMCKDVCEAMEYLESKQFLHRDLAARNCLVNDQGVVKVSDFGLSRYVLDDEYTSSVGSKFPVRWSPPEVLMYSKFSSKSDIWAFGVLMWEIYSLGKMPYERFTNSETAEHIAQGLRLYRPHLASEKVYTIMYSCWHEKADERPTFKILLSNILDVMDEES

pIC50	SMILES
6.00 to 7.00	O=C(CNC(=O)Nc1ccccc1)NC1CCCN(c2ncnc3[nH]ccc23)C1 (stereo not shown) [Example 2, (N-(1-(7H-pyrrolo[2,3-d]pyrimidin-4-yl)piperidin-3-yl)-2-(3-phenylureido)acetamide)]
6.00 to 7.00	O=C(CNC(=O)c1ccccc1)NC1CCCN(c2ncnc3[nH]ccc23)C1 (stereo not shown) [Example 3, (N-(2-(1-(7H-pyrrolo[2,3-d]pyrimidin-4-yl)piperidin-3-ylamino)-2-oxoethyl)benzamide)]
< 5.00	O=C(Nc1ccccc1)C(=O)NC1CCCN(c2ncnc3[nH]ccc23)C1 (stereo not shown) [Example 4]
5.00 to 6.00	O=C(COc1ccccc1)NC1CCCN(c2ncnc3[nH]ccc23)C1 (stereo not shown) [Example 8, (N-(1-(7H-pyrrolo[2,3-d]pyrimidin-4-yl)piperidin-3-yl)-2-phenoxyacetamide)]
5.00 to 6.00	O=C(N[C@@H]1CCCN(c2ncnc3[nH]ccc23)C1)[C@H]1CCc2ccccc2N1 [Example 14, (R)—N—((R)-1-(7H-pyrrolo[2,3-d]pyrimidin-4-yl)piperidin-3-yl)-1,2,3,4-tetrahydroquinoline-2-carboxamide]
5.00 to 6.00	O=C(N[C@@H]1CCCN(c2ncnc3[nH]ccc23)C1)[C@@H]1CCc2ccccc2N1 [Example 15, (S)—N—((R)-1-(7H-pyrrolo[2,3-d]pyrimidin-4-yl)piperidin-3-yl)-1,2,3,4-tetrahydroquinoline-2-carboxamide]
5.00 to 6.00	CN(CC(=O)NC1CCCN(c2ncnc3[nH]ccc23)C1)c1ccccc1 (stereo not shown) [Example 16, (N-(1-(7H-pyrrolo[2,3-d]pyrimidin-4-yl)piperidin-3-yl)-2-(methyl(phenyl)amino)acetamide)]
5.00 to 6.00	CC(C)(C)c1ccccc1NCC(=O)NC1CCCN(c2ncnc3[nH]ccc23)C1 (stereo not shown) [Example 17, (N-(1-(7H-pyrrolo[2,3-d]pyrimidin-4-yl)piperidin-3-yl)-2-(2-tert-butylphenylamino)acetamide)]
6.00 to 7.00	CC(C)(C)c1cccc(NCC(=O)NC2CCCN(c3ncnc4[nH]ccc34)C2)c1 (stereo not shown) [Example 18, (N-(1-(7H-pyrrolo[2,3-d]pyrimidin-4-yl)piperidin-3-yl)-2-(3-ten-butylphenylamino)acetamide)]
< 5.00	CC(C)(C)c1ccc(NCC(=O)NC2CCCN(c3ncnc4[nH]ccc34)C2)cc1 (stereo not shown) [Example 19, (N-(1-(7H-pyrrolo[2,3-d]pyrimidin-4-yl)piperidin-3-yl)-2-(4-tert-butylphenylamino)acetamide)]
6.00 to 7.00	O=C(CNc1ccccc1Cl)NC1CCCN(c2ncnc3[nH]ccc23)C1 (stereo not shown) [Example 20, (N-(1-(7H-pyrrolo[2,3-d]pyrimidin-4-yl)piperidin-3-yl)-2-(2-chlorophenylamino)acetamide)]
6.00 to 7.00	O=C(CNc1ccc(Cl)cc1)NC1CCCN(c2ncnc3[nH]ccc23)C1 (stereo not shown) [Example 22, (N-(1-(7H-pyrrolo[2,3-d]pyrimidin-4-yl)piperidin-3-yl)-2-(4-chlorophenylamino)acetamide)]
6.00 to 7.00	O=C(CNc1ccccc1F)NC1CCCN(c2ncnc3[nH]ccc23)C1 (stereo not shown) [Example 23, (N-(1-(7H-pyrrolo[2,3-d]pyrimidin-4-yl)piperidin-3-yl)-2-(2-fluorophenylamino)acetamide)]
> 7.00	O=C(CNc1cccc2c1OC(F)(F)O2)NC1CCCN(c2ncnc3[nH]ccc23)C1 (stereo not shown) [Example 25, (N-(1-(7H-pyrrolo[2,3-d]pyrimidin-4-yl)piperidin-3-yl)-2-(2,2-difluorobenzo[d][1,3]dioxol-4-ylamino)acetamide)]
< 5.00	NS(=O)(=O)c1cccc(NCC(=O)NC2CCCN(c3ncnc4[nH]ccc34)C2)c1 (stereo not shown) [Example 26, (N-(1-(7H-pyrrolo[2,3-d]pyrimidin-4-yl)piperidin-3-yl)-2-(3-sulfamoylphenylamino)acetamide)]
6.00 to 7.00	O=C(CNc1cccc(Cl)c1Cl)NC1CCCN(c2ncnc3[nH]ccc23)C1 (stereo not shown) [Example 27, (N-(1-(7H-pyrrolo[2,3-d]pyrimidin-4-yl)piperidin-3-yl)-2-(2,3-dichlorophenylamino)acetamide)]
5.00 to 6.00	CS(=O)(=O)c1cccc(NCC(=O)NC2CCCN(c3ncnc4[nH]ccc34)C2)c1 (stereo not shown) [Example 28, (N-(1-(7H-pyrrolo[2,3-d]pyrimidin-4-yl)piperidin-3-yl)-2-(3-(methylsulfonyl)phenylamino)acetamide)]
5.00 to 6.00	CCc1cccc(CC)c1NCC(=O)NC1CCCN(c2ncnc3[nH]ccc23)C1 (stereo not shown) [Example 30, (N-(1-(7H-pyrrolo[2,3-d]pyrimidin-4-yl)piperidin-3-yl)-2-(2,6-diethylphenylamino)acetamide)]
6.00 to 7.00	Cc1cccc(NCC(=O)NC2CCCN(c3ncnc4[nH]ccc34)C2)c1 (stereo not shown) [Example 31, (N-(1-(7H-pyrrolo[2,3-d]pyrimidin-4-yl)piperidin-3-yl)-2-(m-tolylamino)acetamide)]

pIC50	SMILES
6.00 to 7.00	COc1cccc(NCC(=O)NC2CCCN(c3ncnc4[nH]ccc34)C2)c1 (stereo not shown) [Example 32, (N-(1-(7H-pyrrolo[2,3-d]pyrimidin-4-yl)piperidin-3-yl)-2-(3-methoxyphenylamino)acetamide)]
5.00 to 6.00	O=C(CNc1ccc(F)cc1)NC1CCCN(c2ncnc3[nH]ccc23)C1 (stereo not shown) [Example 33, (N-(1-(7H-pyrrolo[2,3-d]pyrimidin-4-yl)piperidin-3-yl)-2-(4-fluorophenylamino)acetamide)]
6.00 to 7.00	O=C(CNc1cc(Cl)ccc1Cl)NC1CCCN(c2ncnc3[nH]ccc23)C1 (stereo not shown) [Example 35, (N-(1-(7H-pyrrolo[2,3-d]pyrimidin-4-yl)piperidin-3-yl)-2-(2,5-dichlorophenylamino)acetamide)]
6.00 to 7.00	COc1ccccc1NCC(=O)NC1CCCN(c2ncnc3[nH]ccc23)C1 (stereo not shown) [Example 37, (N-(1-(7H-pyrrolo[2,3-d]pyrimidin-4-yl)piperidin-3-yl)-2-(2-methoxyphenylamino)acetamide)]
> 7.00	O=C(CNc1cccc(-c2ccccc2)c1)NC1CCCN(c2ncnc3[nH]ccc23)C1 (stereo not shown) [Example 39, (N-(1-(7H-pyrrolo[2,3-d]pyrimidin-4-yl)piperidin-3-yl)-2-(biphenyl-3-ylamino-)acetamide)]
> 7.00	O=C(CNc1cccc(Br)c1)NC1CCCN(c2ncnc3[nH]ccc23)C1 (stereo not shown) [Example 40, (N-(1-(7H-pyrrolo[2,3-d]pyrimidin-4-yl)piperidin-3-yl)-2-(3-bromophenylamino)acetamide)]
> 7.00	O=C(CNc1cccc2c1CCCC2)NC1CCCN(c2ncnc3[nH]ccc23)C1 (stereo not shown) [Example 41, (N-(1-(7H-pyrrolo[2,3-d]pyrimidin-4-yl)piperidin-3-yl)-2-(5,6,7,8-tetrahydronaphthalen-1-ylamino)acetamide)]
6.00 to 7.00	O=C(CNc1cccc(Oc2ccccc2)c1)NC1CCCN(c2ncnc3[nH]ccc23)C1 (stereo not shown) [Example 42, (N-(1-(7H-pyrrolo[2,3-d]pyrimidin-4-yl)piperidin-3-yl)-2-(3-phenoxyphenylamino)acetamide)]
5.00 to 6.00	CN(C)C(=O)c1cccc(NCC(=O)NC2CCCN(c3ncnc4[nH]ccc34)C2)c1 (stereo not shown) [Example 43, (3-(2-(1-(7H-pyrrolo[2,3-d]pyrimidin-4-yl)piperidin-3-ylamino)-2-oxoethylamino)-N,N-dimethylbenzamide)]
> 7.00	O=C(CNc1cccc2c1CCC2)NC1CCCN(c2ncnc3[nH]ccc23)C1 (stereo not shown) [Example 45, (N-(1-(7H-pyrrolo[2,3-d]pyrimidin-4-yl)piperidin-3-yl)-2-(2,3-dihydro-1H-inden-4-ylamino)acetamide)]
> 7.00	O=C(CNc1cccc2ccccc12)NC1CCCN(c2ncnc3[nH]ccc23)C1 (stereo not shown) [Example 46, (N-(1-(7H-pyrrolo[2,3-d]pyrimidin-4-yl)piperidin-3-yl)-2-(naphthalen-1-ylamino)acetamide)]
5.00 to 6.00	CC(C)Oc1cccc(NCC(=O)NC2CCCN(c3ncnc4[nH]ccc34)C2)c1 (stereo not shown) [Example 50, (N-(1-(7H-pyrrolo[2,3-d]pyrimidin-4-yl)piperidin-3-yl)-2-(3-isopropoxyphenylamino)acetamide)]
6.00 to 7.00	Cc1c(Cl)cccc1NCC(=O)NC1CCCN(c2ncnc3[nH]ccc23)C1 (stereo not shown) [Example 52, (N-(1-(7H-pyrrolo[2,3-d]pyrimidin-4-yl)piperidin-3-yl)-2-(3-chloro-2-methylphenylamino)acetamide)]
6.00 to 7.00	COc1c(Cl)cccc1NCC(=O)NC1CCCN(c2ncnc3[nH]ccc23)C1 (stereo not shown) [Example 53, (N-(1-(7H-pyrrolo[2,3-d]pyrimidin-4-yl)piperidin-3-yl)-2-(3-chloro-2-methoxyphenylamino)acetamide)]
< 5.00	O=C(CNc1cccc2c1CNC2=O)NC1CCCN(c2ncnc3[nH]ccc23)C1 (stereo not shown) [Example 54, (N-(1-(7H-pyrrolo[2,3-d]pyrimidin-4-yl)piperidin-3-yl)-2-(1-oxoisoindolin-4-ylamino)acetamide)]
> 7.00	C#Cc1cccc(NCC(=O)NC2CCCN(c3ncnc4[nH]ccc34)C2)c1 (stereo not shown) [Example 55, (N-(1-(7H-pyrrolo[2,3-d]pyrimidin-4-yl)piperidin-3-yl)-2-(3-ethynylphenylamino)acetamide)]
6.00 to 7.00	O=C(CNc1cccc(N2CCCC2)c1)NC1CCCN(c2ncnc3[nH]ccc23)C1 (stereo not shown) [Example 56, (N-(1-(7H-pyrrolo[2,3-d]pyrimidin-4-yl)piperidin-3-yl)-2-(3-(pyrrolidin-1-yl)phenylamino)acetamide)]
5.00 to 6.00	Cn1nc(C(C)(C)C)cc1NCC(=O)NC1CCCN(c2ncnc3[nH]ccc23)C1 (stereo not shown) [Example 57, (N-(1-(7H-pyrrolo[2,3-d]pyrimidin-4-yl)piperidin-3-yl)-2-(3-ten-butyl-1-methyl-1H-pyrazol-5-ylamino)acetamide)]
